From patent US4732977A, “Carbapenem antibiotics” (priority 1986, dated 1988)
Values after ≈ are worked out from the molar mass of the structure shown. Read-outs that look alike come from different tables or passages of the source.

How the values were obtained:
S. pneumoniae A-9585 = assay: M.I.C., tube dilution; type: cell-based; settings: overnight incubation at 37° C., Nutrient Broth
S. pyogenes A-9604 = assay: M.I.C., tube dilution; type: cell-based; settings: overnight incubation at 37° C., Nutrient Broth; listed as Ex. 15"C"
S. aureus A-9537 = assay: M.I.C., tube dilution; type: cell-based
[1] = tested on: S. aureus A-9606 (Pen-res.); assay: M.I.C., tube dilution; type: cell-based; settings: overnight incubation at 37° C.
S. faecalis A20688 = assay: M.I.C., tube dilution; type: cell-based; settings: Nutrient Broth
E. coli A15119 = assay: M.I.C., tube dilution; type: cell-based; settings: overnight incubation at 37° C., Nutrient Broth
E. coli A20341-1 = assay: M.I.C., tube dilution; type: cell-based; settings: Nutrient Broth
K. pneumoniae A-9664 = assay: M.I.C., tube dilution; type: cell-based; settings: Nutrient Broth
K. pneumoniae A20468 = assay: M.I.C., tube dilution; type: cell-based; settings: Nutrient Broth
P. mirabilis A-9900 = assay: M.I.C., tube dilution; type: cell-based; settings: Nutrient Broth
P. vulgaris A21559 = assay: M.I.C., tube dilution; type: cell-based; settings: Nutrient Broth
P. morganii A15153 = assay: M.I.C., tube dilution; type: cell-based; settings: overnight incubation at 37° C.
P. rettgeri A22424 = assay: M.I.C., tube dilution; type: cell-based; settings: overnight incubation at 37° C., Nutrient Broth
S. marcescens A20019 = assay: M.I.C., tube dilution; type: cell-based; settings: overnight incubation at 37° C., Nutrient Broth
E. cloacae A-9659 = assay: M.I.C., tube dilution; type: cell-based; settings: overnight incubation at 37° C., Nutrient Broth
E. cloacae A-9656 = assay: M.I.C., tube dilution; type: cell-based; settings: Nutrient Broth
P. aeruginosa A-9843A = assay: M.I.C., tube dilution; type: cell-based; settings: overnight incubation at 37° C., Nutrient Broth; listed as Ex. 15"C"
P. aeruginosa A21213 = assay: M.I.C., tube dilution; type: cell-based; settings: Nutrient Broth
[2] = Blood levels in mice after intramuscular administration; settings: for AUC / Cmax / half-life: 20 mg/kg;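 on all read-outs here: compounds dissolved in 0.1 M phosphate buffer at pH 7, data from one experiment using four mice for each compound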
Source text: Compounds were solubilized in 0.1 M phosphate buffer pH 7.
a single test; 4 mice used per compound.
Compounds were solubilized in 0.1 M phosphate buffer, pH 7.
on a single test; 4 mice per compound.

[3] = Half-life (stability) in buffer solution; type: physicochemical; settings: 10^-4 M, (phosphate) buffer pH 7.4, 37° C.; read-out: half-life in solution (converted)
Procedure: T1/2 =9.8 h (measured at a concentration of 10^-4 M in phosphate buffer pH 7.4 at 36.8° C.).
UV (phosphate buffer, pH 7.4) λmax 294 nm (ε=8,202); T1/2 (phosphate buffer, pH 7.4, M=0.967, T=37° C.) 9.1 h.
(c of 10^-4 M in pH 7.4 phosphate buffer.
.tau.1/2 =20.8 h measured at 37° C. in buffer (pG 7.4) for a concentration of 10^-4 M.
.tau.1/2 =12.5 h measured at 37° C. in buffer pH 7.4 for a concentration of 10^-4 M.
h (measured for a concentration of 10^-4 M at 36.8° C. in buffer pH 7.4).
.tau.1/2 =26.0 h (measured for a concentration of 10^-4 M at 36.8° C. in buffer pH 7.4).
.tau.1/2 =16.6 h (measured at 36.8° C., pH 7.4 for a concentration of 10^-4 M) and (5R, 6S) 6-(1R-hydroxyethyl)7-oxo-3-[1,2,6-trimethylpyridinium-4-yl)methylthio]-1-azabicyclo[3.2.0 hept-2-ene-2-carboxylate, 0.010 g, 0.7%;
.tau.1/2 =11.6 h (measured for a concentration of 10^-4 M at 36.8° C. in buffer pH 7.4).
.tau.1/2 =13.4 h (measured for a concentration of 10^-4 M at 36.8° C. in buffer pH 7.4).
.tau.1/2 =14.4 h (measured for a concentration of 10^-4 M at 36.8° C. in buffer pH 7.4).
T 1/2: 10.2 h (biological buffer).
.tau.1/2 =10.2 h measured at 36.8° C. for a concentration of 10^-4 M in buffer pH 7.4.

[4] = overnight incubation at 37° C., listed as Ex. 15"C"
[5] = Enterococcus faecalis, A20688, overnight incubation at 37° C., read-out: MIC
[6] = Escherichia coli, A15119, read-out: MIC
[7] = Escherichia coli, A203411, overnight incubation at 37° C., read-out: MIC
[8] = Klebsiella pneumoniae, A20468, overnight incubation at 37° C., read-out: MIC
[9] = Proteus vulgaris, A21559, overnight incubation at 37° C., read-out: MIC
[10] = Enterobacter cloacae, A9656, overnight incubation at 37° C., read-out: MIC
[11] = Pseudomonas aeruginosa, A21213, overnight incubation at 37° C., read-out: MIC

C[C@@H](O)C1C(=O)N2C(C(=O)[O-])=C(SCc3cn(C)n[n+]3C)CC12 (stereo partly drawn) [Example 15 "C", 3-[4-(N,N-dimethyl-1,2,3-triazolium)methylthio]-6α-[1-(R)-hydroxyethyl]-7-oxo-1-azabicyclo(3.2.0)hept-2-ene-2-carboxylate]
MIC (S. pneumoniae A-9585): 0.0005 µg/mL (≈ 0.00148 µM)
MIC (S. pyogenes A-9604): 0.0003 µg/mL (≈ 0.000887 µM)
MIC (S. aureus A-9537; +50% serum, listed as Ex. 15"C"): 0.06 µg/mL (≈ 0.177 µM)
MIC (S. aureus A-9537; overnight incubation at 37° C., Nutrient Broth, listed as Ex. 15"C"): 0.016 µg/mL (≈ 0.0473 µM)
MIC [1]: 0.03 µg/mL (≈ 0.0887 µM)
MIC (S. faecalis A20688; overnight incubation at 37° C.): 0.5 µg/mL (≈ 1.48 µM)
MIC (E. coli A15119; listed as Ex. 15"C"): 0.06 µg/mL (≈ 0.177 µM)
MIC (E. coli A20341-1; overnight incubation at 37° C.): 0.03 µg/mL (≈ 0.0887 µM)
MIC (K. pneumoniae A-9664; [4]): 0.06 µg/mL (≈ 0.177 µM)
MIC (K. pneumoniae A20468; [4]): 0.13 µg/mL (≈ 0.384 µM)
MIC (P. mirabilis A-9900; [4]): 0.06 µg/mL (≈ 0.177 µM)
MIC (P. vulgaris A21559; [4]): 0.06 µg/mL (≈ 0.177 µM)
MIC (P. morganii A15153; printed M. morganii A15153, listed as Ex. 15"C"): 0.25 µg/mL (≈ 0.739 µM)
MIC (P. rettgeri A22424; listed as Ex. 15"C"): 0.25 µg/mL (≈ 0.739 µM)
MIC (S. marcescens A20019; listed as Ex. 15"C"): 0.13 µg/mL (≈ 0.384 µM)
MIC (E. cloacae A-9659; listed as Ex. 15"C"): 0.13 µg/mL (≈ 0.384 µM)
MIC (E. cloacae A-9656; [4]): 0.13 µg/mL (≈ 0.384 µM)
MIC (P. aeruginosa A-9843A): 8 µg/mL (≈ 23.6 µM)
MIC (P. aeruginosa A21213; [4]): 0.5 µg/mL (≈ 1.48 µM)
T1/2 ([2]; mice, 20 mg/kg i.m. (table 9)): 10 min
AUC ([2]; mice, 20 mg/kg i.m. (table 9)): 7300 ng·h/mL
Cmax ([2]; mice, 20 mg/kg i.m. (table 9)): 15100 ng/mL

C[C@@H](O)[C@H]1C(=O)N2C(C(=O)[O-])=C(SCc3cn(C)n[n+]3CC(=O)O)C[C@H]12 [Example 17, Potassium 3-[5-(1-carboxylatomethyl-3-methyl-1,2,3-triazolium)-methanethio]-6α-[1-(R)-hydroxyethyl]-7-oxo-1-azabicyclo[3.2.0]hept-2-ene-2-carboxylate]
MIC (S. aureus A-9537; Staphylococcus aureus, A9537, +50% serum, read-out: MIC): 1 µg/mL
MIC ([1]; Staphylococcus aureus): 0.5 µg/mL
MIC (S. faecalis A20688; [5]): 4 µg/mL
MIC (E. coli A15119; [6]): 0.6 µg/mL
MIC (E. coli A20341-1; [7]): 0.6 µg/mL
MIC (K. pneumoniae A20468; [8]): 0.5 µg/mL
MIC (P. vulgaris A21559; [9]): 0.13 µg/mL
MIC (P. morganii A15153; Morganella morganii, A15153, printed M. morganii A15153, read-out: MIC): 0.5 µg/mL
MIC (P. rettgeri A22424; Providencia rettgeri, A22424, read-out: MIC): 2 µg/mL
MIC (E. cloacae A-9659; Enterobacter cloacae, A9659, read-out: MIC): 2 µg/mL
MIC (E. cloacae A-9656; [10]): 2 µg/mL
MIC (P. aeruginosa A21213; [11]): 16 µg/mL
AUC ([2]; mouse, blood, im): 3400 ng·h/mL
Cmax ([2]; mouse, blood, im): 11000 ng/mL
half-life ([2]; mouse, blood, im): 8 min

C[C@@H](O)[C@H]1C(=O)N2C(C(=O)[O-])=C(SCc3n[n+](C)nn3C)C[C@H]12 [Example 20, (1'R,5R,6S) 3-[(1,3-dimethyl-5-tetrazolium)-methylthio]-6-(1-hydroxyethyl)-7-oxo-1-azabicyclo[3.2.0]hept-2-ene-2-carboxylate]
MIC (S. aureus A-9537; Staphylococcus aureus, A9537, overnight incubation at 37° C., Nutrient Broth, read-out: MIC): 0.5 µg/mL (≈ 1.47 µM)
MIC (S. faecalis A20688; [5]): 16 µg/mL (≈ 47.1 µM)
MIC (E. coli A15119; [6]): 1 µg/mL (≈ 2.95 µM)
MIC (E. coli A20341-1; [7]): 2 µg/mL (≈ 5.89 µM)
MIC (K. pneumoniae A-9664; Klebsiella pneumoniae, A9664, overnight incubation at 37° C., read-out: MIC): 4 µg/mL (≈ 11.8 µM)
MIC (K. pneumoniae A20468; [8]): 4 µg/mL (≈ 11.8 µM)
MIC (P. mirabilis A-9900; Proteus mirabilis, A9900, overnight incubation at 37° C., read-out: MIC): 4 µg/mL (≈ 11.8 µM)
MIC (P. vulgaris A21559; [9]): 4 µg/mL (≈ 11.8 µM)
MIC (S. marcescens A20019; Serratia marcescens, A20019, read-out: MIC): 4 µg/mL (≈ 11.8 µM)
MIC (E. cloacae A-9656; [10]): 16 µg/mL (≈ 47.1 µM)
MIC (P. aeruginosa A21213; [11]): 16 µg/mL (≈ 47.1 µM)
half-life at 100 µM [3]: 630 min
AUC ([2]; mouse, blood, im): 15600 ng·h/mL
Cmax ([2]; mouse, blood, im): 28400 ng/mL
half-life ([2]; mouse, blood, im): 14 min
